Source: patent publication US20210177803A1, “NEW PHARMACEUTICAL USE FOR THE TREATMENT OF HEART FAILURE” (Novartis AG, priority 2018, published 2021)
Read-outs that look alike come from different tables or passages of the source.

Key:
NT-proBNP = system: NT-proBNP
Procedure: (§1) The study rational and design is described in by Velazquez E J, et al. .in Am.
(§2) The starting dose and all subsequent doses were selected to optimize the highest tolerated dose based on a systolic blood pressure (SBP) algorithm.
(§3) Inclusion Criteria: • Patients ≥18 y of age with the capacity to provide written informed consent. • Currently hospitalized for a primary diagnosis of HF, including symptoms and signs of fluid overload. • Eligible patients will be randomized no earlier than 24 hours and up to ten days after presentation while still hospitalized as long as meet the following definition of stable status: • SBP≥100 mm Hg for the preceding 6 hours prior to randomization; no symptomatic hypotension • No increase (intensification) in i.v. diuretic dose within last 6 hours prior to randomization • No i.v. inotropic drugs for 24 hours prior to randomization • No i.v. vasodilators including nitrates within last 6 hours prior to randomization • Left ventricular EF 40% within the past 6 m (including current hospitalization) using echocardiography, multi gated acquisition scan (MUGA), CT scanning, MRI or ventricular angiography, provided no subsequent study documented an EF of >40% • Elevated NT-proBNP≥1600 pg/mL OR BNP≥400 pg/mL during current hospitalization.

[1] = system: patients hospitalized for acute HFrEF; assay: PIONEER-HF study: clinical outcomes; assay type: in vivo, human
Procedure: as §1, §2, §3

[2] = system: patients with HFrEF following hemodynamic stabilization after an episode of ADHF;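 also: adverse events recorded in patients during the 10-week treatment phase following randomization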
[3] = 8 weeks, LCZ696 n = 440, enalapril n = 441
[4] = compared with enalapril, 8-week study period
[5] = not naive to ACEI/ARB (N = 665)

## CCCCC(=O)N(Cc1ccc(-c2ccccc2-c2nn[n-]n2)cc1)[C@H](C(=O)[O-])C(C)C.CCOC(=O)[C@H](C)C[C@@H](Cc1ccc(-c2ccccc2)cc1)NC(=O)CCC(=O)[O-].[Na+].[Na+].[Na+] [LCZ696, trisodium [3((1S,3R)-1-biphenyl-4-ylmethyl-3-ethoxycarbonyl-1-butylcarbamoyl) propionate-(S)-3′-methyl-2′-(pentanoyl{2″-(tetrazol-5-ylate)biphenyl-4′-ylmethyl}amino)butyrate]hemipentahydrate]
NT-proBNP; LCZ696 vs. Enalapril
  Ratio of time-averaged change in NT-proBNP from baseline to the geometric mean of weeks 4 and 8: 0.71
NT-proBNP; LCZ696 vs. enalapril, week 1
  Ratio of change in NT-proBNP from baseline: 0.76
[1]; [3]
  Additional HF drug: 75 (17.0) number (%)
  Composite (death, rehospitalization for HF, LVAD implantation, or listing for cardiac transplant): 41 (9.3) number (%)
  Death: 10 (2.3) number (%)
  Expanded composite (composite plus unplanned outpatient visits requiring IV diuretics, or increase >50% in diuretic dose): 262 (59.5) number (%)
  HF rehospitalization: 35 (8.0) number (%)
  Increase in diuretic dose >50%: 242 (55.0) number (%)
  LVAD implantation: 1 (0.2) number (%)
  Listing for cardiac transplant: 0 (0.0) number (%)
  Unplanned outpatient visits requiring intravenous diuretics: 2 (0.5) number (%)
[1]; LCZ696 vs. Enalapril
  Additional HF drug, HR (95% CI): 0.89 (0.65, 1.22)
  Death, HR (95% CI): 0.66 (0.30, 1.48)
  Expanded composite, HR (95% CI): 0.409
  HF rehospitalization, HR (95% CI): 0.56 (0.37, 0.84)
  Increase in diuretic dose >50%, HR (95% CI): 0.84 (0.84, 1.21)
  LVAD implantation, HR (95% CI): 0.99 (0.06, 15.97)
  Unplanned outpatient visits requiring intravenous diuretics, HR (95% CI): 1.00 (0.14, 7.07)
[1]; [4]
  Absolute risk reduction, clinical composite: 7.5%
  Relative risk reduction, clinical composite: 44.6%
[2]; both arms
  Deaths attributed to the study treatment by the investigator: None
[2]; both treatment groups
  SAE hyperkalemia, patients: < 1%
  SAE hypotension, patients: < 1%
[2]; de novo HFrEF (N = 286)
  AE of interest: Blood creatinine increased: 3 (1.0) n (%)
  AE of interest: Cardiac failure: 13 (4.5) n (%)
  AE of interest: Hyperkalemia: 24 (8.4) n (%)
  AE of interest: Hypotension: 26 (9.1) n (%)
  AE of interest: Renal failure: 3 (1.0) n (%)
  AE of interest: Renal impairment: 8 (2.8) n (%)
  At least one AE: 178 (62.2) n (%)
  At least one serious AE: 33 (11.5) n (%)
  Death: 1 (0.3) n (%)
  Treatment interruption due to AE: 22 (7.7) n (%)
[2]; initiated post-discharge (text, secondary endpoint)
  Rate of permanent discontinuation of study drug due to AEs: 3.5%
[2]; initiated pre-discharge (text, secondary endpoint)
  Rate of permanent discontinuation of study drug due to AEs: 4.5%
[2]; naive to ACEI/ARB (N = 326)
  AE of interest: Blood creatinine increased: 6 (1.8) n (%)
  AE of interest: Cardiac failure: 17 (5.2) n (%)
  AE of interest: Hyperkalemia: 20 (7.1) n (%)
  AE of interest: Hypotension: 29 (8.9) n (%)
  AE of interest: Renal failure: 6 (1.8) n (%)
  AE of interest: Renal impairment: 8 (2.5) n (%)
  At least one AE: 210 (64.4) n (%)
  At least one serious AE: 47 (14.4) n (%)
  Treatment interruption due to AE: 32 (9.8) n (%)
[2]; [5]
  AE of interest: Blood creatinine increased: 23 (3.5) n (%)
  AE of interest: Cardiac failure: 54 (8.1) n (%)
  AE of interest: Hyperkalemia: 86 (12.9) n (%)
  AE of interest: Hypotension: 79 (11.9) n (%)
  AE of interest: Renal failure: 13 (2.0) n (%)
  AE of interest: Renal impairment: 32 (4.8) n (%)
  At least one AE: 446 (67.1) n (%)
  At least one serious AE: 116 (17.4) n (%)
  Treatment interruption due to AE: 77 (11.8) n (%)
[2]; post-discharge arm
  Mortality, patients who died: 2.0%
[2]; post-discharge group
  AE cardiac failure, patients: 8.5%
  AE dizziness, patients: 4.2%
  AE hyperkalemia, patients: 11.3%
  AE hypotension, patients: 9.1%
  Patients with SAEs: 17.7%
  SAE acute kidney injury, patients: 1.4%
  SAE cardiac failure, patients: 7.7%
[2]; post-discharge, N = 496
  Permanent treatment discontinuation due to SAEs: 13 (2.6) n (%)
  Permanent treatment discontinuation due to non-SAEs: 7 (1.4) n (%)
  Serious adverse event: Acute kidney injury: 7 (1.4) n (%)
  Serious adverse event: Atrial fibrillation: 4 (0.8) n (%)
  Serious adverse event: Cardiac failure(acute/chronic): 38 (7.7) n (%)
  Serious adverse event: Chronic obstructive pulmonary disease: 4 (0.8) n (%)
  Serious adverse event: Hyperkalemia: 2 (0.4) n (%)
  Serious adverse event: Hypotension: 2 (0.4) n (%)
